From US20210023024A1, “COMPOSITION FOR TREATMENT OF CHRONIC WOUNDS” (priority 2018, published 2021)

Tested on: diabetic foot ulcer
Experiment: Clinical use of triclosan cream on diabetic foot ulcers (patients 1 and 2)
Format: in vivo, human
Excerpt: A triclosan cream formulation, according to an embodiment of the invention (Example 5), was applied to a number of patients, with differently presented conditions and symptoms. as described below:
diabetic. Neuro ischaemic. Heart rate: pulse mono and biphasic depending on the weather. Indication of reduced arterial blood flow due to a blockage or low elasticity. Ex-smoker. Stage 3 Non healing dorsal diabetic foot ulcer.
The patient had 2 ulcers: • 1) one on the dorsal IPJ on the 2nd toe, size of 5 pence, 1 cm sq and • 2) one on apex of 1st toe, size of 5p, 1 cm sq.
The patient was treated twice a week. The ulcer was filled with the cream to the brim, so the cream was level with skin surface. […] Triclosan cream was applied for 8 weeks. The cream was packed into the wound and a non-adhesive foam dressing was applied. The patient then wore rocker bottom soles to reduce the weight and pressure. Treatment for this toe ulcer started on Mar. 11, 2017 and healed on 20/1/18. No other medication was used.
The patient had 1 ulcer on sole of foot, approximately the size of 50 pence.
While the patient was receiving chemotherapy, the triclosan cream was applied for 8 weeks. The triclosan cream was applied every alternate day, with a sharp debridement and cleansed with sterile saline solution prior to application of the cream. In the last two weeks of treatment the cream was applied daily. […]

Cc1onc(-c2c(F)cccc2Cl)c1C(=O)N[C@@H]1C(=O)N2[C@@H]1SC(C)(C)[C@@H]2C(=O)O [Flucloxacilin]
outcome of previous treatment (Patient 1, before triclosan cream, Flucloxacilin 6 months intermittently, 6 courses): could not clear the infection in the wound | outcome of previous treatment (Patient 2, before triclosan cream): could not clear the infection in the wound
